Here are results for one molecule from publication PMC7311426, “An amphipathic peptide with antibiotic activity against multidrug-resistant Gram-negative bacteria” (Nature Communications, 2020).

The subject of the test is E. coli DSA 443 ESBL. Description: Murine urinary tract infection (UTI) model. Type of test: in vivo, E. coli in OF-1 mice. Particulars: for Day 3 Bladder, Mean Diff. Vehicle vs. Meropenem 40 mg/kg / Day 3 Urine, Mean Diff. Vehicle vs. Meropenem 40 mg/kg: Dunnett's multiple comparisons test; for Day 3 Urine, Mean 2 (group mean) / Mean Diff., Vehicle vs. treated / Mean 2 (group mean bacterial count): Meropenem 40 mg/kg; for Day 3 Urine, Mean 2 (group mean): n2 = 8; for Mean Diff., Vehicle vs. treated / Mean 2 (group mean bacterial count): UTI model, Day 3 Kidneys.

Structures are written as SMILES.

Consider `C[C@@H](O)[C@H]1C(=O)N2C(C(=O)O)=C(S[C@@H]3CN[C@H](C(=O)N(C)C)C3)[C@H](C)[C@H]12` [Meropenem, meropenem, reference compound], for which the “Day 3 Bladder, Mean Diff. Vehicle vs. Meropenem 40 mg/kg” value (Arenicin-3 study) is given as 2.654; the “Day 3 Bladder, Mean Diff. Vehicle vs. Meropenem 40 mg/kg” value (NZ17143 study) came out at 2.624; the “Day 3 Bladder, Mean Diff. Vehicle vs. Meropenem 40 mg/kg” value (NZ17211 study) was 4.176. Besides, the “Day 3 Urine, Mean Diff. Vehicle vs. Meropenem 40 mg/kg” value was found to be 5.07 (Arenicin-3 study), 4.004 (NZ17143 study) and 5.546 (NZ17211 study). Further, the “DAY 3 BLADDER, Mean” value (ESBL E. coli DSA 443, Meropenem 40 mg kg-1, bladder, day 3, Prism column statistics, mean of n = 12) amounted to 3.523. In addition, the “Day 3 Urine, Mean 2 (group mean)” value (Arenicin-3 study) worked out at 1.314; the “Day 3 Urine, Mean 2 (group mean)” value (NZ17143 study) is 1.812; the “Day 3 Urine, Mean 2 (group mean)” value (NZ17211 study) is 1.325. Further, the “Mean Diff., Vehicle vs. treated” value by setting is: (Arenicin-3 experiment) 0.4699; (NZ17143 experiment) 0.6355; (NZ17211 experiment) 0.1396. In addition, the “Mean 2 (group mean bacterial count)” value (comparator arm of Arenicin-3 experiment) was found to be 2.023, the “Mean 2 (group mean bacterial count)” value (comparator arm of NZ17143 experiment) is 1.446 and the “Mean 2 (group mean bacterial count)” value (comparator arm of NZ17211 experiment) was determined as 2.631.
